# Measurements: patent US20220296590A1, “STEREOISOMERS OF THE COMPOUND 3-(BENZO[D][1,3]DIOXOL-5-YL)-7-(1-HYDROXYPROPAN-2-YL)-1-(1H-INDOL-3-YL)-6,7-DIHYDRO-3H-OXAZOL[3,4-A]PYRAZINE-5,8-DIONE AND USE THEREOF AS AN ANTITUMOR AGENT AND PHOSPHODIESTERASE ENZYME INHIBITOR” (BIOLAB SANUS FARMACEUTICA LTDA, priority 2019, published 2022)
# Target: T1, PDE5A1 enzyme (Homo sapiens, UniProt O76074)
# T1 construct: purchased BPS Bioscience 60350
# Assay: In vitro inhibition of human phosphodiesterase enzyme 5 (BPS Bioscience PDE5A1 assay kit, fluorescence polarization)
# Format: biochemical
# Conditions: read-out: % of Inhibition (PDE5A1)
# Protocol: The evaluation of the compound is studied using BPS Bioscience enzyme assay kit (catalogue 60350). The PDE5A1 Assay kit is designed for identification of PDE5A1 inhibitors using fluorescence polarization. The assay is based on the binding of a fluorescent nucleotide monophosphate generated by PDE5A1 enzyme to the binding agent.
# In this methodology only two simple steps on a microtiter plate are required for PDE5A1 reactions. First, the fluorescently labeled cGMP is incubated with PDE5A1 for 1 hour. Second, the binding agent is added to the reaction mixture to produce a change in fluorescent polarization that can then be measured using a fluorescence reader equipped for the measurement of fluorescence polarization.
# For the assay the storage reagent FAM-Cyclic-3′, 5′-GMP (20 μM) is diluted with PDE assay buffer to achieve the solution with a […] concentration; the PDE5A1 enzyme is thawed and diluted with the PDE buffer obtaining a PDE5A1 solution at 10 pg/mL.
# The assay compounds are diluted with DMSO 100% (v/v) at a concentration of 1000 μM and subsequently diluted in a Sodium chloride 0.9% solution to obtain a curve of concentrations of interest for the assay. The compounds are diluted in concentrations of: 10 nM, 30 nM, 50 nM, 100 nM, 300 nM, 500 nM, 1 μM, 3 μM, 5 μM (DMSO 10% v/v).
# The study is comprised of groups: (i) substrate control; (ii) positive control (KIT); (iii) samples in several concentrations; (iv) tadalafil (comparative control). Each parameter (group) is triple labeled.
# For the 4 groups there is added, to each microplate well, […] of the FAM-Cyclic-3′ reagent, 5′-GMP (200 μM).
# To the substrate control group there is added, to each well, […] of vehicle (DMSO 10% v/v) and […] PDE Buffer.
# To the positive control group there is added, to each well, […] of vehicle (DMSO 10% v/v).
# To the tadalafil group: there is added […] of the solution in the concentrations of interest.
# To the test group there is added […] of the sample solution (test compound)
# OBSERVATION: the parameters tested are in triplicate.
# To begin the reaction, add […] of the PDE5A1 enzyme (diluted as described above) to the microplate wells designated as Positive Control and Samples (test and tadalafil), and incubate the microplate, for 1 hour, at a temperature of 25° C.
# After the incubation period, the reaction is interrupted by the addition, in all the wells, of […] of the binding agent solution and the microplate is incubated for 30 minutes, under light stirring, at room temperature. The reading of the microplate is carried out in Polarized Fluorescence (475-495 nm—excitation and 518-538 nm—emission detection) 500 nanoseconds integration time.
smiles,measurement,value
"CN1CC(=O)N2[C@H](c3ccc4c(c3)OCO4)c3[nH]c4ccccc4c3C[C@@H]2C1=O [Tadalafyl, tadalafil, reference compound]",inhibition at 5 µM,96 ± 2%
